Laboratory results taken from patent US10570117B2, “Phenylimidazole compound” (Otsuka Pharmaceutical Factory, Inc., priority 2015, dated 2020).
Converted amounts (≈) assume the structure as drawn. Where two headings read alike, the source gives them in different places.

Key:
[1] = tested on: lipoprotein lipase (LPL) gene; experiment: LPL mRNA elevating action (RT-PCR quantification of LPL mRNA in C2Cl2 cells); type: cell-based, mouse; conditions: Mus musculus, 24 h, compound 10 μM, ratio relative to the amount of LPL mRNA in cells with DMSO only, read-out: Rate of increase in LPL mRNA
Description: LPL mRNA Elevating Action
C2Cl2 cells (cell strain derived from striated muscle of mouse) were seeded in 96-well plates using a DMEM medium (Gibco) (containing 2 mM L-glutamine and 10% fetal bovine serum). After the cells were grown, the medium was removed. Subsequently, media obtained by adding dimethyl sulfoxide (DMSO) solutions of the compounds to the same medium as described above to a concentration of 10 μM were individually added to the cells and allowed to stand for 24 hours. The compound-containing media were removed, and the plates were washed with phosphate buffered saline. Thereafter, the remaining cells were lysed and subjected to a reverse transcription polymerase chain reaction (RT-PCR reaction) to obtain cDNA. Primers specific to lipoprotein lipase (LPL) gene, a necessary enzyme, etc., were added to the obtained cDNA. The mixture was set in 7500 Fast Real Time PCR System produced by Applied Biosystem to perform a PCR reaction (20 cycles) and the amount of LPL mRNA amplified was quantified. The LPL mRNA elevating action of each compound in the test cells was indicated as the ratio relative to the amount of LPL mRNA in cells allowed to stand in a medium to which only DMSO was added, with the amount being defined as 1.
As Comparative Example 1, a test was performed in the same manner as above, using a compound disclosed as the compound of Example 57 in WO2010/090200.

[2] = Solubility in gastric juice or intestinal juice model fluid (precipitation method using DMSO); type: physicochemical; conditions: room temperature
Summary of the method: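 Dissolved amount (μg/mL) quantified by UV of filtrate versus pre-made calibration curves. Precipitation approach: DMSO solutions spiked into pH 1.2 (JP 1st fluid) or pH 6.8 (JP 2nd fluid) medium, shaken at room temperature for 24 h before insolubles were filtered off.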

[3] = pH 1.2, simulated gastric fluid, kinetic from dmso stock, 1st fluid for Disintegration Test of Japanese Pharmacopoeia (pH: 1.2), read-out: Solubility (μg/mL) 1st fluid
[4] = pH 6.8, kinetic from dmso stock, 2nd fluid for Disintegration Test of Japanese Pharmacopoeia (pH: 6.8), read-out: Solubility (μg/mL) 2nd fluid

Row | Structure (SMILES) | fold induction at 10 µM [1] | solubility at 24 h [2, 3] | solubility at 24 h [2, 4] | melting point
1 | COc1cc(OCc2ccc(C(F)(F)F)cn2)ccc1-c1c(Cl)nc(-c2ccc(Cl)nc2)n1CC1CC1 [Example 295] | 4.06 | 18.3 µg/mL (≈ 33.3 µM) | 1.1 µg/mL (≈ 2 µM) | 130 to 132 °C
2 | COc1cc(OCc2ncc(C(F)(F)F)cc2F)ccc1-c1[nH]c(-c2ccc(F)nc2)nc1F [Example 319] | 3.74 | 4.7 µg/mL (≈ 9.78 µM) | 0.5 µg/mL (≈ 1.04 µM) | 156 to 158 °C
3 | Fc1cc(C(F)(F)F)cnc1COc1ccc(-c2[nH]c(C3CC(F)(F)C3)nc2Cl)cc1 [Example 397] | 4.58 | 15.9 µg/mL (≈ 34.4 µM) | < 0.3 µg/mL | 162 to 167 °C
4 | COc1cc(OCc2ncc(C(F)(F)F)cc2F)ccc1-c1[nH]c(C2CC(F)(F)C2)nc1Br [Example 400] | 4.49 | 97.1 µg/mL (≈ 181 µM) | 0.6 µg/mL (≈ 1.12 µM) | 192 to 195 °C
5 | COc1cc(OCc2ccc(C(F)(F)F)cn2)ccc1-c1nc(-c2ccc(F)cn2)[nH]c1C [Example 25] | 2.68 | 83.1 µg/mL (≈ 181 µM) | 1 µg/mL (≈ 2.18 µM) | 180 to 182 °C
6 | COc1cc(OCc2ccc(C(F)(F)F)nc2)ccc1-c1c(C)nc(-c2ccc(Cl)nc2)n1C [Example 153, 2-chloro-5-[5-[2-methoxy-4-((6-(trifluoromethyl)pyridin-3-yl)methoxy)phenyl]-1,4-dimethyl-1H-imidazol-2-yl]pyridine] | 4.61 | > 98 µg/mL | 1.7 µg/mL (≈ 3.48 µM) | 148 to 150 °C
7 | COc1cc(-c2nc(C3CCCCC3)[nH]c2Cl)ccc1OCc1ccc(C(F)(F)F)cn1 [Example 234] | 3.06 | 92.8 µg/mL (≈ 199 µM) | < 0.3 µg/mL | 171 to 175 °C
8 | Fc1ccc(-c2nc(Cl)c(-c3ccc(OCc4ncc(C(F)(F)F)cc4F)cc3F)[nH]2)cn1 [Example 370] | 3.31 | 1.6 µg/mL (≈ 3.3 µM) | 1.8 µg/mL (≈ 3.71 µM) | 144 to 146 °C
9 | COCCOc1cc(OCc2ccc(C(F)(F)F)cn2)ccc1-c1nc(-c2ccc(Cl)nc2)[nH]c1Cl [Example 218] | 1.21 | 0.4 µg/mL (≈ 0.742 µM) | < 9.6 µg/mL | 170 to 172 °C
10 | COc1cc(OCc2ncc(Cl)cc2F)ccc1-c1cnc(-c2ccc(F)nc2)[nH]1 [Example 141] | 2.33 | 10.1 µg/mL (≈ 23.6 µM) | < 0.3 µg/mL | 174 to 176 °C
11 | COc1cc(OCc2ncc(C)cc2C)ccc1-c1nc(-c2ccc(F)nc2)[nH]c1Cl [Example 206] | 2.75 | > 88 µg/mL | 7 µg/mL (≈ 15.9 µM) | 109 to 124 °C
12 | COc1cc(OCc2ccc(C(F)(F)F)nc2)ccc1-c1nc(-c2ccc(F)cn2)[nH]c1C [Example 23] | 2.94 | 13.1 µg/mL (≈ 28.6 µM) | < 1.6 µg/mL | 140 to 142 °C
13 | COc1cc(OCc2ccc(C(F)(F)F)cn2)ccc1-c1nc(-c2ccc(F)nc2)[nH]c1Cl [Example 233] | 3.87 | 9.9 µg/mL (≈ 20.7 µM) | 1.1 µg/mL (≈ 2.3 µM) | 190 to 193 °C
14 | COc1cc(OCc2ccncc2C(F)(F)F)ccc1-c1cnc(-c2ccc(F)nc2)[nH]1 [Example 136] | 2.71 | > 89 µg/mL | 2.2 µg/mL (≈ 4.95 µM) | 181 to 192 °C
15 | CCSc1ccc(-c2nc(Cl)c(-c3ccc(OCc4ccc(C(F)(F)F)nc4)cc3OC)[nH]2)cn1 [Example 358] | 4.18 | 1.6 µg/mL (≈ 3.07 µM) | < 0.4 µg/mL | 160 to 163 °C
16 | COc1cc(-c2[nH]c(C3C4CC5CC(C4)CC3C5)nc2Cl)ccc1OCc1ccc(C(F)(F)F)cn1 (centres unmarked) [Example 201] | 2.45 | 90 µg/mL (≈ 174 µM) | 2.6 µg/mL (≈ 5.02 µM) | 238 to 240 °C (dec.)
17 | COc1cc(OCc2ncccc2C(F)(F)F)ccc1-c1c[nH]c(-c2ccc(F)nc2)n1 [Example 121] | 3.38 | > 89 µg/mL | 1.8 µg/mL (≈ 4.05 µM) | 201 to 202 °C
18 | COc1cc(OCc2ccnc(C(F)(F)F)c2)ccc1-c1cnc(-c2ccc(Cl)nc2)[nH]1 [Example 107] | 2.68 | 11.2 µg/mL (≈ 24.3 µM) | 9.6 µg/mL (≈ 20.8 µM) | 174 to 223 °C

Row | Structure (SMILES) | fold induction at 10 µM [1] | solubility at 24 h [2, 3] | solubility at 24 h [2, 4] | melting point
19 | COc1cc(OCc2ccc(C(F)(F)F)cn2)ccc1-c1[nH]c(C2CC(F)(F)C2)nc1Cl [Example 188] | 2.95 | 86.4 µg/mL (≈ 182 µM) | 1.9 µg/mL (≈ 4.01 µM) | 191 to 193 °C
20 | Fc1cc(C(F)(F)F)cnc1COc1ccc(-c2cnc(C3CC(F)(F)C3)[nH]2)cc1 [Example 393] | 1.26 | > 85 µg/mL | 1.9 µg/mL (≈ 4.45 µM) | 191 to 196 °C
21 | COc1cc(-c2nc(-c3ccc(Cl)nc3)[nH]c2Cl)ccc1OCc1cccc(F)n1 [Example 220] | 2.69 | < 0.3 µg/mL | < 7.9 µg/mL | 198 to 201 °C
22 | COc1cc(OCc2ncc(C)cc2C)ccc1-c1c[nH]c(-c2ccc(F)nc2)n1 [Example 118] | 2.91 | 80.2 µg/mL (≈ 198 µM) | 2.1 µg/mL (≈ 5.19 µM) | 219 to 223 °C (dec.)
23 | COc1cc(OCc2ccc(S(=O)(=O)OC)cn2)ccc1-c1c[nH]c(-c2ccc(Cl)nc2)n1 [Example 44] | 1.14 | 11.9 µg/mL (≈ 24.4 µM) | 0.7 µg/mL (≈ 1.44 µM) | 232 to 235 °C (dec.)
24 | COc1cc(OCc2ncc(C(F)(F)F)cc2F)ccc1-c1[nH]c(C(C)(C)C)nc1Cl [Example 383] | 2.16 | 85.1 µg/mL (≈ 186 µM) | < 0.3 µg/mL | 170 to 172 °C
25 | COc1cc(OCc2ccc(C(F)(F)F)cn2)ccc1-c1nc(-c2ccc(F)nc2)[nH]c1C [Example 39] | 2.7 | > 99 µg/mL | 5.2 µg/mL (≈ 11.3 µM) | 141 to 150 °C
26 | COc1cc(OCc2cncc(C(F)(F)F)c2)ccc1-c1[nH]c(-c2ccc(F)nc2)nc1Br [Example 270] | 3.81 | 9.1 µg/mL (≈ 17.4 µM) | < 0.4 µg/mL | 176 to 179 °C
27 | COc1cc(OCc2ncccc2C(F)(F)F)ccc1-c1[nH]c(-c2ccc(Cl)nc2)nc1Br [Example 253] | 2.62 | 5.9 µg/mL (≈ 10.9 µM) | 1 µg/mL (≈ 1.85 µM) | 176 to 186 °C
28 | COc1cc(-c2[nH]c(C3CC(F)(F)C3)nc2Br)ccc1OCc1ccc(C(F)(F)F)cn1 [Example 190] | 3.58 | 92.5 µg/mL (≈ 178 µM) | 2 µg/mL (≈ 3.86 µM) | 151 to 157 °C
29 | COc1cc(OCc2ccc(C(F)(F)F)nc2)ccc1-c1[nH]c(-c2ccc(F)nc2)nc1C#N [Example 409] | 1.34 | 1.3 µg/mL (≈ 2.77 µM) | 1.9 µg/mL (≈ 4.05 µM) | 212 to 219 °C
30 | COc1cc(OCc2ccc(C(F)(F)F)[n+]([O-])c2)ccc1-c1[nH]c(-c2ccc(F)nc2)nc1Cl [Example 315] | 2.7 | 1.8 µg/mL (≈ 3.64 µM) | 2.7 µg/mL (≈ 5.46 µM) | > 250 °C
31 | COc1cc(OCc2ncc(C(F)(F)F)cc2F)ccc1-c1[nH]c(-c2ccc(F)nc2)nc1Br [Example 255] | 3.14 | 17.5 µg/mL (≈ 32.3 µM) | < 0.4 µg/mL | 156 to 158 °C
32 | COc1cc(OCc2ccc(C(F)(F)F)nc2)ccc1-c1[nH]c(-c2ccc(F)nc2)nc1C(F)(F)F [Example 412] | 1.41 | 0.6 µg/mL (≈ 1.17 µM) | 1.5 µg/mL (≈ 2.93 µM) | 222 to 224 °C
33 | COc1cc(-c2[nH]c(C3CCC(F)(F)C3)nc2Cl)ccc1OCc1ncc(C(F)(F)F)cc1F (centres unmarked) [Example 347] | 3.28 | 83.2 µg/mL (≈ 164 µM) | < 0.4 µg/mL | 142 to 147 °C
34 | COc1cc(OCc2ncccc2C(F)(F)F)ccc1-c1nc(-c2ccc(Cl)nc2)[nH]c1Cl [Example 221] | 3.47 | 66.5 µg/mL (≈ 134 µM) | < 8.8 µg/mL | 182 to 184 °C
35 | COc1c(OCc2ccc(C(F)(F)F)nc2)ccc(-c2[nH]c(C3CCC(F)(F)CC3)nc2Cl)c1OC [Example 200] | 4.73 | 98.4 µg/mL (≈ 185 µM) | 2.4 µg/mL (≈ 4.51 µM) | 148 to 150 °C
